≈ marks a conversion by molar mass, not a printed value. Calls of active or inactive are those of the source. The calls are words filed in the database; no cut-off is given here.
Experiments:
[1] = system: HCT-116; assay: Cytotoxicity against human HCT-116 cells assessed as inhibition of cell growth at 20 uM incubated for 48 hrs by SRB assay relative to control; assay type: functional
[2] = system: MCF7; assay: Cytotoxicity against human MCF7 cells assessed as inhibition of cell growth at 20 uM incubated for 48 hrs by SRB assay relative to control; assay type: functional
[3] = system: HCT-116; assay: Cytotoxicity against human HCT-116 cells assessed as inhibition of cell growth incubated for 48 hrs by SRB assay; assay type: functional, cell-based; conditions: HCT-116, 48 h
[4] = system: MCF7; assay: Cytotoxicity against human MCF7 cells assessed as inhibition of cell growth incubated for 48 hrs by SRB assay; assay type: functional, cell-based; conditions: MCF7, 48 h
[5] = Cytotoxicity against human HEK293 cells assessed as inhibition of cell growth incubated for 48 hrs by SRB assay; assay type: toxicity, cell-based
[6] = Selectivity index, ratio of IC50 for HEK293 cells to IC50 for human HCT-116 cells; assay type: toxicity; conditions: HEK293 cells versus HCT-116 cells, read-out: Ratio IC50
[7] = Selectivity index, ratio of IC50 for HEK293 cells to IC50 for human MCF7 cells; assay type: toxicity; conditions: HEK293 cells versus MCF7 cells, read-out: Ratio IC50
[8] = system: MCF7; assay: Induction of apoptosis in human MCF7 cells assessed as viable cells at 5.3 uM incubated for 24 hrs by Annexin V-FITC/PI staining based flow cytometric analysis (reference value: 88.20 %); assay type: functional; conditions: read-out: Activity
[9] = system: MCF7; assay: Induction of apoptosis in human MCF7 cells assessed as early apoptotic cells at 5.3 uM incubated for 24 hrs by Annexin V-FITC/PI staining based flow cytometric analysis (reference value: 2.93 %); assay type: functional
[10] = system: MCF7; assay: Induction of apoptosis in human MCF7 cells assessed as late apoptotic cells at 5.3 uM incubated for 24 hrs by Annexin V-FITC/PI staining based flow cytometric analysis (reference value: 4.85 %); assay type: functional
[11] = system: MCF7; assay: Induction of apoptosis in human MCF7 cells assessed as necrotic cells at 5.3 uM incubated for 24 hrs by Annexin V-FITC/PI staining based flow cytometric analysis (reference value: 4.02 %); assay type: functional
[12] = system: MCF7; assay: Inhibition of colony formation in human MCF7 cells assessed as reduction in number of colonies at subtoxic doses measured after 48 hrs by crystal violet staining based analysis; assay type: functional, cell-based
[13] = system: MCF7; assay: Induction of ROS production in human MCF7 cells assessed as DCFDA intensity at 5.3 uM incubated for 24 hrs by flow cytometric analysis (reference value: 0.95 %); assay type: functional
[14] = system: MCF7; assay: Induction of mitochondrial membrane loss in human MCF7 cells assessed as fold change at 5.3 uM incubated for 24 hrs by Mitotracker dye based flow cytometric analysis relative to control; assay type: functional
[15] = system: MCF7; assay: Cell cycle arrest in human MCF7 cells assessed as accumulation of cells at G1 phase at 5.3 uM incubated for 24 hrs by PI staining based flow cytometric analysis (reference value: 63.9 %); assay type: functional
[16] = system: MCF7; assay: Cell cycle arrest in human MCF7 cells assessed as accumulation of cells at S phase at 5.3 uM incubated for 24 hrs by PI staining based flow cytometric analysis (reference value: 22.93 %); assay type: functional
[17] = system: MCF7; assay: Cell cycle arrest in human MCF7 cells assessed as accumulation of cells at G2/M phase at 5.3 uM incubated for 24 hrs by PI staining based flow cytometric analysis (reference value: 13.7 %); assay type: functional
[18] = system: MCF7; assay: Anticancer activity against human MCF7 cells assessed as reduction in cell viability at 5.3 uM incubated for 48 hrs by SRB assay relative to control; assay type: functional
[19] = system: MCF7; assay: Anticancer activity against human MCF7 cells assessed as reduction in cell viability at 5.3 uM preincubated with LY320135 for 1 hrs followed by compound addition and measured after 48 hrs by SRB assay; assay type: functional, cell-based
[20] = system: MCF7; assay: Anticancer activity against human MCF7 cells assessed as reduction in cell viability at 5.3 uM preincubated with SR144528 for 1 hrs followed by compound addition and measured after 48 hrs by SRB assay; assay type: functional, cell-based
[21] = system: MCF7; assay: Anticancer activity against human MCF7 cells assessed as reduction in cell viability at 5.3 uM preincubated with ML-193 for 1 hrs followed by compound addition and measured after 48 hrs by SRB assay; assay type: functional, cell-based
[22] = system: MCF7; assay: Anticancer activity against human MCF7 cells assessed as reduction in cell viability at 5.3 uM preincubated with capsazepine for 1 hrs followed by compound addition and measured after 48 hrs by SRB assay; assay type: functional, cell-based
[23] = system: MCF7; assay: Anticancer activity against human MCF7 cells assessed as reduction in cell viability at 5.3 uM preincubated with GW9662 for 1 hrs followed by compound addition and measured after 48 hrs by SRB assay; assay type: functional, cell-based
[24] = Solubility of compound in water by UV absorbance based analysis; assay type: physicochemical
[25] = Solubility of compound in SGF by UV absorbance based analysis; assay type: physicochemical
[26] = Solubility of compound in SIF by UV absorbance based analysis; assay type: physicochemical
[27] = Metabolic stability in human liver microsomes assessed as half-life at 5 uM measured upto 30 mins in presence of NADPH by LC-MS/MS analysis; assay type: ADME, Microsome
[28] = Metabolic stability in human liver microsomes assessed as intrinsic clearance at 5 uM measured upto 30 mins per mg protein in presence of NADPH by LC-MS/MS analysis; assay type: ADME, Microsome; conditions: read-out: CLH
[29] = Metabolic stability in human liver assessed as intrinsic clearance at 5 uM measured upto 30 mins in presence of NADPH by LC-MS/MS analysis; assay type: ADME, tissue-based; conditions: read-out: CLH
[30] = Metabolic stability in human liver microsomes assessed as hepatic extraction ratio at 5 uM measured upto 30 mins in presence of NADPH by LC-MS/MS analysis; assay type: ADME, Microsome; conditions: read-out: ERH
[31] = target: Cytochrome P450 2C19 (Homo sapiens, UniProt P33261); assay: Inhibition of CYP2C19 in human liver microsomes using S-mephenytoin substrate at 1 to 10 uM in presence of NADPH by LC-MS/MS analysis; assay type: ADME, Microsome; conditions: dose 1-10 µM
[32] = target: Cytochrome P450 1A2 (Homo sapiens, UniProt P05177); assay: Inhibition of CYP1A2 in human liver microsomes using […] substrate at 1 to 10 uM in presence of NADPH by LC-MS/MS analysis; assay type: ADME, Microsome; conditions: dose 1-10 µM
[33] = Permeability of compound at 100 uM incubated for 16 hrs by PAMPA-BBB assay; assay type: ADME
[34] = Metabolic stability in mouse liver microsomes assessed as half-life at 5 uM measured upto 30 mins in presence of NADPH by LC-MS/MS analysis; assay type: ADME, Microsome
[35] = Metabolic stability in mouse liver microsomes assessed as intrinsic clearance at 5 uM measured upto 30 mins per mg protein in presence of NADPH by LC-MS/MS analysis; assay type: ADME, Microsome; conditions: read-out: CLH
[36] = Metabolic stability in mouse liver assessed as intrinsic clearance at 5 uM measured upto 30 mins in presence of NADPH by LC-MS/MS analysis; assay type: ADME, tissue-based; conditions: read-out: CLH
[37] = Metabolic stability in mouse liver microsomes assessed as hepatic extraction ratio at 5 uM measured upto 30 mins in presence of NADPH by LC-MS/MS analysis; assay type: ADME, Microsome; conditions: read-out: ERH
[38] = system: MCF7; assay: Induction of apoptosis in human MCF7 cells assessed as viable cells at 4.4 uM incubated for 24 hrs by Annexin V-FITC/PI staining based flow cytometric analysis (reference value: 88.20 %); assay type: functional; conditions: read-out: Activity
[39] = system: MCF7; assay: Induction of apoptosis in human MCF7 cells assessed as early apoptotic cells at 4.4 uM incubated for 24 hrs by Annexin V-FITC/PI staining based flow cytometric analysis (reference value: 2.93 %); assay type: functional
[40] = system: MCF7; assay: Induction of apoptosis in human MCF7 cells assessed as late apoptotic cells at 4.4 uM incubated for 24 hrs by Annexin V-FITC/PI staining based flow cytometric analysis (reference value: 4.85 %); assay type: functional
[41] = system: MCF7; assay: Induction of apoptosis in human MCF7 cells assessed as necrotic cells at 4.4 uM incubated for 24 hrs by Annexin V-FITC/PI staining based flow cytometric analysis (reference value: 4.02 %); assay type: functional
[42] = system: MCF7; assay: Induction of ROS production in human MCF7 cells assessed as DCFDA intensity at 4.4 uM incubated for 24 hrs by flow cytometric analysis (reference value: 0.95 %); assay type: functional
[43] = system: MCF7; assay: Induction of mitochondrial membrane loss in human MCF7 cells assessed as fold change at 4.4 uM incubated for 24 hrs by Mitotracker dye based flow cytometric analysis relative to control; assay type: functional
[44] = system: MCF7; assay: Cell cycle arrest in human MCF7 cells assessed as accumulation of cells at G1 phase at 4.4 uM incubated for 24 hrs by PI staining based flow cytometric analysis (reference value: 63.9 %); assay type: functional
[45] = system: MCF7; assay: Cell cycle arrest in human MCF7 cells assessed as accumulation of cells at S phase at 4.4 uM incubated for 24 hrs by PI staining based flow cytometric analysis (reference value: 22.93 %); assay type: functional
[46] = system: MCF7; assay: Cell cycle arrest in human MCF7 cells assessed as accumulation of cells at G2/M phase at 4.4 uM incubated for 24 hrs by PI staining based flow cytometric analysis (reference value: 13.7 %); assay type: functional
[47] = system: MCF7; assay: Anticancer activity against human MCF7 cells assessed as reduction in cell viability at 4.4 uM incubated for 48 hrs by SRB assay relative to control; assay type: functional
[48] = system: MCF7; assay: Anticancer activity against human MCF7 cells assessed as inhibition of cell growth at 4.4 uM preincubated with SR144528 for 1 hrs followed by compound addition and measured after 48 hrs by SRB assay relative to control; assay type: functional
[49] = system: MCF7; assay: Anticancer activity against human MCF7 cells assessed as inhibition of cell growth at 4.4 uM preincubated with LY320135 for 1 hrs followed by compound addition and measured after 48 hrs by SRB assay; assay type: functional, cell-based
[50] = system: MCF7; assay: Anticancer activity against human MCF7 cells assessed as inhibition of cell growth at 4.4 uM preincubated with ML-193 for 1 hrs followed by compound addition and measured after 48 hrs by SRB assay; assay type: functional, cell-based
[51] = system: MCF7; assay: Anticancer activity against human MCF7 cells assessed as inhibition of cell growth at 4.4 uM preincubated with capsazepine for 1 hrs followed by compound addition and measured after 48 hrs by SRB assay; assay type: functional, cell-based
[52] = system: MCF7; assay: Anticancer activity against human MCF7 cells assessed as inhibition of cell growth at 4.4 uM preincubated with GW9662 for 1 hrs followed by compound addition and measured after 48 hrs by SRB assay; assay type: functional, cell-based

Cytochrome P450 2C19, sequence (P33261 whole entry): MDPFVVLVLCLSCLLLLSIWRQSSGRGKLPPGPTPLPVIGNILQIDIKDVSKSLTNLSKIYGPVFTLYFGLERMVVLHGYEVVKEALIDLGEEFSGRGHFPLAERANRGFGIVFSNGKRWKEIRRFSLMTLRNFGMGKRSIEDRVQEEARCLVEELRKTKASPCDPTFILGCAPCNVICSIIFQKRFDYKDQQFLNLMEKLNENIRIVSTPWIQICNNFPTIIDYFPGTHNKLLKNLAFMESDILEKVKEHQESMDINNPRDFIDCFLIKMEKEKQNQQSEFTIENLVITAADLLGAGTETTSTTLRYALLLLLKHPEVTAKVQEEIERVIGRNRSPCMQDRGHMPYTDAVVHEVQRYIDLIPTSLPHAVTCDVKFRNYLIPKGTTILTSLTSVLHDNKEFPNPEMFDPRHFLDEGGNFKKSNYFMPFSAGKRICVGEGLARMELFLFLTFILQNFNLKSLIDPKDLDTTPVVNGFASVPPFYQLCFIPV
Cytochrome P450 1A2, sequence (P05177 whole entry): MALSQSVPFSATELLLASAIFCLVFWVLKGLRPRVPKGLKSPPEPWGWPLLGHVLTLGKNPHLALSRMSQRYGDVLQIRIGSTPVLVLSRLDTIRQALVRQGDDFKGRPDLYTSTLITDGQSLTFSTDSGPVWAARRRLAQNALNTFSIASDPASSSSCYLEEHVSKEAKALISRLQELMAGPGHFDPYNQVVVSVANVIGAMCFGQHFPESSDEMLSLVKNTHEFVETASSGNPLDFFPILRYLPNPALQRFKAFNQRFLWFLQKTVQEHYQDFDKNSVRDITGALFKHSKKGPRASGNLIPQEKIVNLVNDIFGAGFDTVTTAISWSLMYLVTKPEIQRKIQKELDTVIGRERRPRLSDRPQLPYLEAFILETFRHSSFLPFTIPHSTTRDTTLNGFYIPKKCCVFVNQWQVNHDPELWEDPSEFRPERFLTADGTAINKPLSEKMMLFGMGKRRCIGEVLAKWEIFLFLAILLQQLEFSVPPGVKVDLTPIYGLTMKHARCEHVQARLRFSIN

Structure (SMILES)	inhibition at 20 µM [1] [%]	inhibition at 20 µM [2] [%]	IC50 [3] [µM]	IC50 [4] [µM]	IC50 at 48 h [5] [µM]	selectivity ratio [6]	selectivity ratio [7]	inhibition [12]	solubility [24] [µg/mL]	solubility [25] [µg/mL]	solubility [26] [µg/mL]	half-life at 5 µM [27] [min]	microsomal CLint at 5 µM [28] [µL/min/mg]	CLint scaled at 5 µM [29] [mL/min/kg]	hepatic extraction ratio at 0.5 h, 5 µM [30]	inhibition (INH) [31]	inhibition (INH) [32]	permeability [33]	half-life at 5 µM [34] [min]	microsomal CLint at 5 µM [35] [µL/min/mg]	further results
C=C(C)[C@@H]1CCC(C)=C[C@H]1c1c(O)cc(CCCCC)c2c1OCN(CCCC)C2	82.6	85.3	4.2	5.3	37.1	8.8	7	Active	80 (≈ 194 µM)	> 1500	80 (≈ 194 µM)	32	44	51	0.71	Active	Active	Permeable	31	46	viability at 5.3 µM [8]: 66.1%; Activity [9]: 8.93%; Activity [10]: 15.07%; Activity [11]: 9.86%; Activity [13]: 12.05%; fold change (FC) [14]: 4.3; Activity [15]: 75.72%; Activity [16]: 15.48%; Activity [17]: 8.8%; Activity [18]: 46.45%; Activity [19]: Active; Activity [20]: Active; Activity [21]: Active; Activity [22]: Active; Activity [23]: Active; CLint scaled at 5 µM [36]: 182 mL/min/kg; hepatic extraction ratio at 0.5 h, 5 µM [37]: 0.67
C=C(C)[C@@H]1CCC(C)=C[C@H]1c1c(O)cc(CCCCC)c2c1OCN(C1CCC1)C2	63.4	84.9	8.6	4.4	28.1	3.2	6.4	Active	40 (≈ 97.7 µM)	> 1500	> 1500	18	77	90	0.81	Active	Active	Impermeable	10	146	viability at 4.4 µM [38]: 67.8%; Activity [39]: 7.61%; Activity [40]: 18.39%; Activity [41]: 6.2%; Activity [42]: 17.87%; fold change (FC) [43]: 5; Activity [44]: 73.84%; Activity [45]: 15.74%; Activity [46]: 10.42%; Activity [47]: 48.65%; inhibition at 4.4 µM [48]: ~17%; Activity [49]: Active; Activity [50]: Active; Activity [51]: Active; Activity [52]: Active; CLint scaled at 5 µM [36]: 580 mL/min/kg; hepatic extraction ratio at 0.5 h, 5 µM [37]: 0.87
